Patent publication US20260258036A1, “INHIBITORS OF HUMAN ALDOSTERONE SYNTHASE (CYP11B2)” («TARGET MEDICALS» LIMITED LIABILITY COMPANY, priority 2022, published 2026)

Each compound was assayed against T1, recombinant CYP11B2 (Homo sapiens, UniProt P19099) (assay: Inhibition of CYP11B2 activity in a reconstructed enzyme system (HPLC with UV detector)). Details: compounds 1_xx; test compound final concentration ≤2 μM; corticosterone substrate; 30 minutes at 37° C.; read-out: Level of CYP11B2 activity inhibition.
T1 sequence (P19099 25-503): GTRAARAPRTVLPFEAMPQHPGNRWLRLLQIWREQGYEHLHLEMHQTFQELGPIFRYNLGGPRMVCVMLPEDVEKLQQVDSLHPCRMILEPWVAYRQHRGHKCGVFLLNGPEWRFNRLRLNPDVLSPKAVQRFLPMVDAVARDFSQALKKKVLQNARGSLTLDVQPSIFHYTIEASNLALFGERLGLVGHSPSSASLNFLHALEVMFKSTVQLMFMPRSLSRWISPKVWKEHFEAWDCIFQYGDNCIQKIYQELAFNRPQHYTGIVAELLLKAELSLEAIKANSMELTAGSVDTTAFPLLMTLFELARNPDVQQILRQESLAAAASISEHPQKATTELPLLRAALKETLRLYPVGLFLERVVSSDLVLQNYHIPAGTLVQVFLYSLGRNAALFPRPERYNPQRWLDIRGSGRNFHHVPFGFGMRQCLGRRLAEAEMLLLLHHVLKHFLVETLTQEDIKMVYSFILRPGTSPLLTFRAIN
Type: biochemical
Method: The authors of the present invention investigated the activity of the compounds according to the invention as inhibitors of CYP11 B2 when analyzed in a reconstructed system containing 0.5 μm recombinant CYP1 1B2, 0.3 μm human adrenodoxin reductase, 2 μm human adrenodoxin, 100 μm corticosterone as a control reaction to detect the formation of a product with using an HPLC system with a UV detector. The test compound is added to the reaction mixture to a final concentration of ≤2 μM. The concentrated protein mixture was diluted with buffer to a final volume of 0.5 ml, pre-incubated for 10 min at 37° C., followed by the addition of the substrate. Reactions are initiated by adding NADPH (nicotinamide adenine dinucleotide phosphate) to a final concentration of 0.25 mM with a regenerating system (glucose-6-phosphate and glucose-6-phosphate dehydrogenase) in 25 mM potassium phosphate buffer, pH 7.4, containing 0.1 mM DTT (dithiothreitol), 0.1% Tween-20.4 mM MgCl2 and incubated at 37° C. After 30 minutes of incubation, the reaction is stopped by adding 5 ml of dichloromethane. The organic phase is isolated by centrifugation, evaporation, dissolution in ethanol and transferred to a vial for HPLC studies. A C18 Luna 100 Å 250×4, 6 mm column was used on an Agilent Technologies 1200 series instrument (USA) with ethanol as the mobile phase.
Activity (a) is calculated as the amount of product in nmol per minute per 1 nmol of CYP.
where k is the correction factor (k=1 is used as the molar extinction coefficients of steroid substrates and products similar at a detection wavelength of 254 nm), As is the peak area of the substrate, cs is the concentration of the substrate, Ap is the peak area of the product, ce is the concentration of CYP (cytochrome P450), t is the reaction time.
The level of inhibition of CYP11 B2 activity is expressed as a percentage, where 0% is defined as no inhibition in reactions without test compound and 100% is absolute inhibition by test compound.

| SMILES | inhibition at 2 µM [%] |
| --- | --- |
| O=S(=O)(c1cc(F)c(OCC(F)F)c(F)c1)n1ccc2c(-c3ccccn3)cncc21 [Compound 1_08, 1-((4-(2,2-difluoroethoxy)-3,5-difluorophenyl)sulfonyl)-4-(pyridin-2-yl)-1H-pyrrolo[2,3-c]pyridine] | 50 to 100 |
| Cc1ccc(-c2cncc3c2ccn3S(=O)(=O)c2cc(F)c(N(C)C)c(F)c2)nc1 [Compound 1_33, 2,6-difluoro-N,N-dimethyl-4-((4-(5-methylpyridin-2-yl)-1H-pyrrolo[2,3-c]pyridin-1-yl)sulfonyl)aniline] | 50 to 100 |
| COc1c(C)cc(S(=O)(=O)n2ccc3c(-c4ccc(S(C)(=O)=O)cn4)cncc32)cc1C [Compound 1_05, 1-(4-methoxy-3,5-dimethylphenyl)sulfonyl-4-(5-methylsulfonyl-2-pyridyl)pyrrolo[2,3-c]pyridine] | 20 to 100 |
| CC(C)Oc1c(F)cc(S(=O)(=O)n2ccc3c(-c4ccccn4)cncc32)cc1F [Compound 1_06, 1-((3,5-difluoro-4-isopropoxyphenyl)sulfonyl)-4-(pyridin-2-yl)-1H-pyrrolo[2,3-c]pyridine] | 50 to 100 |
| CN1CCN(c2c(F)cc(S(=O)(=O)n3ccc4c(-c5nc(C#N)co5)cncc43)cc2F)CC1 [Compound 1_27, 2-(1-((3,5-difluoro-4-(4-methylpiperazin-1-yl)phenyl)sulfonyl)-1H-pyrrolo[2,3-c]pyridin-4-yl)oxazol-4-carbonitrile] | 50 to 100 |
| CN(C)c1c(F)cc(S(=O)(=O)N2CCc3c(-c4ccccn4)cncc32)cc1F [Compound 1_15, 2,6-difluoro-N,N-dimethyl-4-((4-(pyridin-2-yl)-2,3-dihydro-1H-pyrrolo[2,3-c]pyridin-1-yl)sulfonyl)aniline] | 20 to 100 |
| Nc1c(F)cc(S(=O)(=O)n2ccc3c(-c4ccccn4)cncc32)cc1F [Compound 1_11, 2,6-difluoro-4-((4-(pyridin-2-yl)-1H-pyrrolo[2,3-c]pyridin-1-yl)sulfonyl)aniline] | 50 to 100 |

The next lines start with the values.

| inhibition at 2 µM [%] | SMILES |
| --- | --- |
| 50 to 100 | CC1CN(c2c(F)cc(S(=O)(=O)n3ccc4c(-c5ccccn5)cncc43)cc2F)C1 [Compound 1_19, 1-((3,5-difluoro-4-(3-methylazetidin-1-yl)phenyl)sulfonyl)-4-(pyridin-2-yl)-1H-pyrrolo[2,3-c]pyridine] |
| 50 to 100 | CN1CCC2CN(c3c(F)cc(S(=O)(=O)n4ccc5c(-c6ccccn6)cncc54)cc3F)CC2C1 (stereo not shown) [Compound 1_25, 1-((3,5-difluoro-4-(5-methyloctahydro-2H-pyrrolo[3,4-c]pyridin-2-yl)phenyl)sulfonyl)-4-(pyridin-2-yl)-1H-pyrrolo[2,3-c]pyridine] |
| 20 to 100 | CN1CC2CN(c3c(F)cc(S(=O)(=O)n4ccc5c(-c6ccccn6)cncc54)cc3F)CC2C1 (stereo not shown) [Compound 1_24, 1-((3,5-difluoro-4-(5-methylhexahydropyrrolo[3,4-c]pyrrol-2(1H)-yl)phenyl)sulfonyl)-4-(pyridin-2-yl)-1H-pyrrolo [2,3-s]pyridine] |

Same assay, conditions: compounds 2_xx, 3_xx, 4_01; test compound final concentration ≤2 μM; corticosterone substrate; 30 minutes at 37° C.; read-out: Level of CYP11B2 activity inhibition

| inhibition at 2 µM [%] | SMILES |
| --- | --- |
| 35 to 100 | CN1CC2CC1CN2c1c(F)cc(S(=O)(=O)n2ccc3c(-c4ccccn4)cncc32)cc1F (stereo not shown) [Compound 3_17, 1-((3,5-difluoro-4-(5-methyl-2,5-diazabicyclo[2.2.1]heptan-2-yl)phenyl)sulfonyl)-4-(pyridin-2-yl)-1H-pyrrolo[2,3-c]pyridine] |
| 35 to 100 | NC1CCN(c2c(F)cc(S(=O)(=O)n3ccc4c(-c5ccccn5)cncc43)cc2F)CC1 [Compound 3_15, 1-(2,6-difluoro-4-((4-(pyridin-2-yl)-1H-pyrrolo[2,3-c]pyridin-1-yl)sulfonyl)phenyl)piperidin-4-amine] |
| 35 to 100 | CN1CCN(c2c(F)cc(S(=O)(=O)n3ccc4c(-c5ccccn5)cncc43)cc2F)CC1=O [Compound 2_01, 4-(2,6-difluoro-4-((4-(pyridin-2-yl)-1H-pyrrolo[2,3-c]pyridin-1-yl)sulfonyl)phenyl)-1-methylpiperazin-2-one] |
